Reference: ChEMBL document CHEMBL2057195, “Design and synthesis of a novel pyrrolidinyl pyrido pyrimidinone derivative as a potent inhibitor of PI3Kα and mTOR” (Bioorg Med Chem Lett, 2012)
In brackets after ≈: the same amount, converted by molar mass.

Legend:
physchem = conditions: buffer, pH 6.5
Description: Apparent kinetic solubility of the compound at pH 6.5

[1] = biological target: Serine/threonine-protein kinase mTOR (Homo sapiens, UniProt P42345)
[2] = biological target: Phosphatidylinositol 4,5-bisphosphate 3-kinase catalytic subunit alpha isoform (Mus musculus, UniProt P42337)
Chain of Phosphatidylinositol 4,5-bisphosphate 3-kinase catalytic subunit alpha isoform (P42337 whole entry, canonical isoform): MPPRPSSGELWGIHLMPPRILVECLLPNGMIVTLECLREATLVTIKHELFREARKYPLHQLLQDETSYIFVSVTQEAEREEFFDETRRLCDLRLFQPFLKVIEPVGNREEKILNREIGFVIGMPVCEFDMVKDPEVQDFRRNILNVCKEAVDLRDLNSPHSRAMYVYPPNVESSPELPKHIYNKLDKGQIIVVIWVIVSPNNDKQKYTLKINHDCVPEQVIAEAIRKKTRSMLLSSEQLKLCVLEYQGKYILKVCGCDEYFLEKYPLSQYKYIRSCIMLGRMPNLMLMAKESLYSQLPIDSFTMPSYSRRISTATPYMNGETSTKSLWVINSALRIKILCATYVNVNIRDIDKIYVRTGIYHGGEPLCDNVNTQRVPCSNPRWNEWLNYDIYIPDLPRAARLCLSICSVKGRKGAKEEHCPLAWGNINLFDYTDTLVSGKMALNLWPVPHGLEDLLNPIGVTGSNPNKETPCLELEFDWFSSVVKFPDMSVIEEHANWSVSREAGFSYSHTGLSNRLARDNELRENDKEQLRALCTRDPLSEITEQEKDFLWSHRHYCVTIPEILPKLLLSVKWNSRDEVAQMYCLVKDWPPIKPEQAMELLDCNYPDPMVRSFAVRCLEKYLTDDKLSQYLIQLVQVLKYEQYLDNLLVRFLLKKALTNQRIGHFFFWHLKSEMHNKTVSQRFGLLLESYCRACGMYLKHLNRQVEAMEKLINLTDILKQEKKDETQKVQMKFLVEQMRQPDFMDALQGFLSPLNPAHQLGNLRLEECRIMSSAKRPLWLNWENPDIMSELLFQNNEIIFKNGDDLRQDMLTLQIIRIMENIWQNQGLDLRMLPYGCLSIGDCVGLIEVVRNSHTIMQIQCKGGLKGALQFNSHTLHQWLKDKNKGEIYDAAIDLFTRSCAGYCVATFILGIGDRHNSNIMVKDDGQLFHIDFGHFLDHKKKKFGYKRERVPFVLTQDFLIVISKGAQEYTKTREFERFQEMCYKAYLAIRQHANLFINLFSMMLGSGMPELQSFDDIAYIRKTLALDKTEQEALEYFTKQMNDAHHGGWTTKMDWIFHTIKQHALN
Description: Inhibition of mouse PI3Kalpha

[3] = Clearance in rat liver microsomes; assay type: ADME, Microsome; conditions: read-out: CLH
[4] = Cmax in rat at 5 mg/kg, po; assay type: ADME, organism-based; parameters: dose 5 mg/kg, route oral; conditions: in vivo
[5] = Clearance in rat at 2 mg/kg, iv; assay type: ADME, organism-based; parameters: dose 2 mg/kg, route intravenous; conditions: in vivo
Liver microsomes [6] = assay: Drug metabolism in human liver microsomes assessed as CYP450-mediated GSH adduct formation in presence of GSH; assay type: ADME, Microsome
[7] = Half life in rat at 2 mg/kg, iv; assay type: ADME, organism-based; parameters: dose 2 mg/kg, route intravenous; conditions: in vivo
[8] = Volume of distribution at steady state in rat at 2 mg/kg, iv; assay type: ADME, organism-based; parameters: dose 2 mg/kg, route intravenous; conditions: in vivo, read-out: Vdss
Liver microsomes [9] = assay: Drug metabolism in human liver microsomes assessed as CYP450-mediated GSH adduct formation in absence of GSH; assay type: ADME, Microsome
[10] = Oral bioavailability in rat at 5 mg/kg; assay type: ADME, organism-based; conditions: in vivo
Liver microsomes [11] = assay: Drug metabolism in human liver microsomes assessed as CYP450-mediated 4-(2-amino-4-methyl-7-oxo-6-(1H-pyrazol-4-yl)pyrido[2,3-d]pyrimidin-8(7H)-ylamino)butanoic acid formation; assay type: ADME, Microsome

solubility kinetic (physchem) [µM] | Ki [1] [nM] | Ki [2] [nM] | Compound | also measured
3.94 (≈ 1.38 µg/mL) | 142 | 1.56 | COc1ccc(-c2cc3c(C)nc(N)nc3n(C3CCCC3)c2=O)cn1 | 
 |  | 10 | COc1ccc(-c2cc3c(C)nc(N)nc3n(N3CCCC3)c2=O)cn1 | 
43.4 (≈ 12.3 µg/mL) | 23.5 | 13.5 | Cc1nc(N)nc2c1cc(-c1cn[nH]c1)c(=O)n2C(C)C | microsomal CLint [3]: 349 µL/min/mg
16.2 (≈ 5.24 µg/mL) |  | 26 | COc1ccc(-c2cc3c(C)nc(N)nc3n(C3CC3)c2=O)cn1 | 
16.7 (≈ 4.71 µg/mL) | 190 | 36 | Cc1nc(N)nc2c1cc(-c1cn[nH]c1)c(=O)n2C1CC1 | 
 |  | 827 | Cc1nc(N)nc2c1cc(-c1cn[nH]c1)c(=O)n2NCC(C)C | 
434 (≈ 136 µg/mL) |  | 138 | CCN(CC)n1c(=O)c(-c2cn[nH]c2)cc2c(C)nc(N)nc21 | 
11.1 (≈ 3.74 µg/mL) | 76.4 |  | COc1ccc(-c2cc3c(C)nc(N)nc3n(C3CCC3)c2=O)cn1 | 
13 (≈ 3.85 µg/mL) | 51.2 | 7 | Cc1nc(N)nc2c1cc(-c1cn[nH]c1)c(=O)n2C1CCC1 | 
43.1 (≈ 13.4 µg/mL) | 10.6 | 12.5 | Cc1nc(N)nc2c1cc(-c1cn[nH]c1)c(=O)n2N1CCCC1 | Cmax [4]: 0.144 ng/mL; clearance [5]: 36.3 mL/min/kg; Drug metabolism (Liver microsomes [6]): Not Active; half-life [7]: 54 min; Vd [8]: 2.9 L/kg; Drug metabolism (Liver microsomes [9]): Not Active; bioavailability [10]: 52%; Drug metabolism (Liver microsomes [11]): Active
